These results are taken from patent US6538001B1, “Crystalline modification of 5-fluoro-1-(tetrahydro-2-furyl) uracil and complex compounds based thereon, producing antineoplastic effect” (priority 2001, dated 2003).

A short description of data set [1]: Determination of solubility (USP XXIII article Solubility). The class given is physicochemical. How it is done:
The solubility was determined in accordance with the requirements set out in the article “Solubility”, USPXXTIII (1995, p. 2071).

Data set [2] concerns uterine neck cancer cells. Briefly: Cytotoxicity (MTT) on a culture of uterine neck cancer cells. The class given is cell-based. The arrangement: Effect on the proliferation of cancer cells: dose or concentration left out as unconfirmed. Conditions: for Optical density at 540 nm: 4 days. As for the experimental part: The determination was carried out by following the known procedure (Mosmann N. T., J. Immunology Methods, 1983, vol. 65, 55-63, Carmichel J. et al., Cancer Res., 1987, vol. 47, 936-946) on a culture of uterine neck cancer cells. The cells were grown at 37° C. on the RPMI 1640 medium with additives of a 10%embryonal serum of cows and 200 u/ml of gentamicin. CO2 content in the incubator atmosphere was 10%. The cells which were in the exponential phase of growth were suspended with trypsin and inoculated in an amount of 4×10^3 into each socket of a 96-socket dish for monolayer cultures. Solutions of samples of the preparations to be investigated were prepared by dissolving 23 mg of each preparation in 10 ml of a culture broth, 10^−2 M solutions being thus obtained. These were starting solutions for obtaining solutions of a lower concentration by diluting them with the culture broth. Directly before adding the solutions to the cells, these solutions were sterilized by filtering through millipore filters. One day after the inoculation of the cells, solutions of samples of the preparations to be investigated in prescribed concentrations were added into each socket of the dish. After that the cells grew for another 4 days.
All in all, 9 concentrations of each of the 4 samples of the investigated preparations were tested.
Quantitative estimation of the cytotoxicity of the investigated preparations was carried out with the use of 3-(4,5-dimethylthiazol-2-yl)-2,5-diphenyltetrazolium bromide (MTT). […] 0.5 mg/ml was added into each socket of the dish 4 hours before the completion of cells cultivation. On completion of the incubation, the culture broth was removed from the dish sockets, the formasane crystals were dissolved, and the cells were scanned on an automatic Multiscan MCC/340P reader at the 540 nm wavelength. The results were calculated in percent of the cells subjected to the effect of the investigated preparations, absorbed at 540 nm, as against the absorption of control cells.
The action of each concentration of the investigated preparations on cancer cells was estimated from the results of 4-6 independent experiments, treated by methods of mathematical statistics.

≈ marks a conversion by molar mass, not a printed value.

As for `O=c1[nH]c(=O)n(C2CCCO2)cc1F` (stereo not drawn) [Form V of tegafur, 5-fluoro-1-(tetrahydro-2-furyl)uracil], in data set [1] (in words), the “Solubility compared with pharmacopeial tegafur” value is “higher than the solubility of pharmacopeial tegafur”. Besides, in data set [1] (temperature of solvent 20 °C), the “Solubility, % with respect to tegafur” value is 187.5%. The “Optical density at 540 nm” value in data set [2] (5 × 10^−3 M (on conversion to tegafur), MTT) turned out to be 0.25 ± 0.02; in data set [2] (5 × 10^−4 M (on conversion to tegafur), MTT), 0.44 ± 0.05; in data set [2] (5 × 10^−5 M (on conversion to tegafur), MTT), 0.70 ± 0.03; in data set [2] (5 × 10^−6 M (on conversion to tegafur), MTT) it was 0.73 ± 0.03; in data set [2] (10^−2 M (on conversion to tegafur), MTT), 0.16 ± 0.01; in data set [2] (10^−3 M (on conversion to tegafur), MTT) it was 0.35 ± 0.02. Moreover, the “Optical density at 540 nm” value is reported as 0.56 ± 0.06 in data set [2] (10^−4 M (on conversion to tegafur), MTT); 0.73 ± 0.08 in data set [2] (10^−5 M (on conversion to tegafur), MTT); 0.79 ± 0.08 in data set [2] (10^−6 M (on conversion to tegafur), MTT). Besides, in data set [2] (at the concentration of 10^−4 M, relative to tegafur), the “Inhibition of proliferation more intensive than tegafur” value is recorded as 70%. Also, in data set [2] (uterine neck cancer cells, MTT), the “Concentration at which the proliferation of cells is inhibited” value was determined as 50 µM.

In general, solubility refers to the concentration that dissolves in the medium under given conditions. Molecule `O=c1[nH]c(=O)n(C2CCCO2)cc1F` (stereo not drawn) [pharmacopeial tegafur, 5-fluoro-1-(tetrahydro-2-furyl)uracil, reference compound] returned a solubility in data set [1] (20 °C, thermodynamic from solid, temperature of solvent 20 °C) of 8000 µg/mL (≈ 40 mM). Further, the “Optical density at 540 nm” value in data set [2] (5 × 10^−3 M (on conversion to tegafur), MTT, listed as Pharmacopeial tegafur) is reported as 0.28 ± 0.005; in data set [2] (5 × 10^−4 M (on conversion to tegafur), MTT, listed as Pharmacopeial tegafur), 0.56 ± 0.12; in data set [2] (5 × 10^−5 M (on conversion to tegafur), MTT, listed as Pharmacopeial tegafur), 0.80 ± 0.10; in data set [2] (5 × 10^−6 M (on conversion to tegafur), MTT, listed as Pharmacopeial tegafur), 0.76 ± 0.08; in data set [2] (10^−2 M (on conversion to tegafur), MTT, listed as Pharmacopeial tegafur), 0.26 ± 0.04; in data set [2] (10^−3 M (on conversion to tegafur), MTT, listed as Pharmacopeial tegafur) it was 0.45 ± 0.06. In addition, the “Optical density at 540 nm” value stood at 0.81 ± 0.13 in data set [2] (10^−4 M (on conversion to tegafur), MTT, listed as Pharmacopeial tegafur); 0.81 ± 0.09 in data set [2] (10^−5 M (on conversion to tegafur), MTT, listed as Pharmacopeial tegafur); 0.76 ± 0.05 in data set [2] (10^−6 M (on conversion to tegafur), MTT, listed as Pharmacopeial tegafur). For the same molecule, the “Effect on the proliferation of cancer cells” value in data set [2] (range of concentrations of 10^−6) was “does not affect the proliferation of cancer cells”.
